# Measurements: paper PMC9889419 (Pharmacological Reports, 2022)
# Like-named read-outs stand apart in the source and are kept apart here. Marks after values point to notes of the source that are not given here.
# Legend:
# mice [1] = assay: Rotarod test (neurotoxicity); format: in vivo; settings: for Rotarod: neurotoxic at: mice, ip; for Number of animals active or toxic over the number tested: Rotarod;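 as to all read-outs here: in vivo neurotoxicity screen run within the NIH Epilepsy Therapy Screening Program (ETSP, formerly Anticonvulsant Screening Program)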
# Method: (§1) The assays were carried out within the Epilepsy Therapy Screening Program (ETSP, previously known as the Anticonvulsant Screening Program, ASP), Epilepsy Branch, National Institute of Neurological and Communicative Disorders and Stroke, National Institutes of Health in Rockville, MD, USA [23].
# (§2) The obtained compounds were screened for antiseizure activity and neurotoxicity in vivo within the Epilepsy Therapy Screening Program (ETSP, previously known as the Anticonvulsant Screening Program, ASP), Epilepsy Branch, National Institute of Neurological and Communicative Disorders and Stroke, National Institutes of Health in Rockville, MD, USA [23].
# mice [2] = settings: for MES: active at: mice, ip; for Number of animals active or toxic over the number tested: MES
# Method: as §1, §2
# mice [3] = settings: ip; cited from earlier work
# mice [4] = settings: ip, cited from earlier work
# mice [5] = settings: 32 mA, ip; cited from earlier work
# guinea pigs [6] = assay: Infiltration anesthesia (intradermal wheal test); format: in vivo
# Method: A painful reaction to a prick of the skin at the centre of the wheal three times and every 5 s with 5 min intervals during the first 30 min of observation was tested. The experiment was continued to achieve a return of a reaction to the prick. The control wheal was done by an intradermal injection of 0.1 mL of 0.9% NaCl [25]. Local anesthesia was determined by calculating the ratio of the number of positive responses (no flinch) to the number of negative responses (flinch).
# guinea pigs [7] = assay: Corneal anesthesia; format: in vivo; settings: 5 min
# Method: A. Corneal anesthesia. […] The corneal reflex was examined by irritation of right eye conjunctiva (studied eye) and a left eye conjunctiva (control eye) by horsehair. The strength of local anesthetic activity was determined from the moment of solution instillation to the moment of reflex return. The presence or lack of corneal reflex were assessed. The eye conjunctiva irritation was done 6 times (every 5 s) with the interval of 5 min during the first 30 min [31].
# mice [8] = assay: Tail immersion test (local anesthetic activity); format: in vivo
# Method: The tail immersion test in mice. […] The method was performed by subcutaneous (sc) injection of the tested substance dissolved in saline, at a concentration range 0.06–2%, in a constant volume of 0.2 mL about 1 cm from the root of the mouse tail. Fifteen minutes later, the 3-cm distal part of the tail was immersed into temperature-controlled water (50 ± 0.5 °C). The reaction time (latency until the tail is pulled away) was measured by the means of a chronometer. In this assay the cut-off was 20 s [29].
# mice [9] = assay: Formalin test (first screening); format: in vivo; settings: ip
# Method: Formalin test. The first screening in doses 15 and 30 mg/kg was performed at the Jagiellonian University-Medical College. […] After 30 min, animals were injected with 20 μL of a 0.5% formalin solution into the plantar surface of the hind paw. The total time spent by animal licking or biting the injected paw was assessed for the following 40 min.
# mice [10] = assay: Subcutaneous pentylenetetrazole seizure test (ScPTZ, SCMET); format: in vivo; settings: mice, ip, 0.5 h
# Method: as §1
# mice [11] = assay: Antiseizure activity and preliminary toxicity screening; format: in vivo; settings: ip
# mice [12] = assay: 6 Hz test; format: in vivo; settings: for Number of animals active or toxic over the number tested: 6 Hz
# Method: The 6 Hz model test was carried out according to the protocol originally described by Brown et al. [54] and more recently by Barton et al. [55] and Kamiński et al. [47] and is a model of pharmacoresistant epilepsy [56].
# rats = settings: ip; cited from earlier work
# guinea pigs [13] = settings: 0.5%, cited from earlier work
# mice [14] = settings: cited from earlier work
compound,measurement,setting,value
"Cc1cccc(Cl)c1OCCN[C@@H]1CCCC[C@H]1O (relative stereo) [Compound 8, R,S-trans-2-((2-(2-chloro-6-methylphenoxy)ethyl)amino)cyclohexan-1-ol]",Rotarod: neurotoxic at,mice [1]; 0.5 h,100 mg/kg
same,MES: active at,mice [2]; 0.5 h,30 mg/kg
CC(=O)[C@H]1CC[C@H]2[C@@H]3CC[C@H]4C[C@H](O)CC[C@]4(C)[C@H]3CC[C@]12C [Allopregnanolone],ScPTZ ED50,mice [3],13.7 (10.1–18.7) mg/kg
same,ScPTZ TPE,mice [3],0.17 h
same,MES ED50,mice [4],> 100 mg/kg
same,MES TPE,mice [4],0.17 h
same,6 Hz ED50,mice [5],14.2 (10.3–19.4) mg/kg
same,6 Hz TPE,mice [5],0.17 h
"Cc1cccc(Cl)c1OCCNCC(C)O (centres unmarked) [Compound 1, R,S-1-((2-(2-chloro-6-methylphenoxy)ethyl)amino)propan-2-ol]",Rotarod: neurotoxic at,mice [1]; 0.5 h,100 mg/kg
same,MES: active at,mice [2]; 0.5 h,30 mg/kg
"Cc1cccc(Cl)c1OCCNC(C)CO (centres unmarked) [Compound 2, R,S-2-((2-(2-chloro-6-methylphenoxy)ethyl)amino)propan-1-ol]",Rotarod: neurotoxic at,mice [1]; 0.5 h,MES: active at 100 Rotarod: neurotoxic at 100 mg/kg
same,MES: active at,mice [2]; 0.5 h,MES: active at 100 Rotarod: neurotoxic at 100 mg/kg
"CCC(O)CNCCOc1c(C)cccc1Cl (centres unmarked) [Compound 3, R,S-1-((2-(2-chloro-6-methylphenoxy)ethyl)amino)butan-2-ol]",Rotarod: neurotoxic at,mice [1]; 0.5 h,100 mg/kg
same,MES: active at,mice [2]; 0.5 h,30 mg/kg
"CC[C@@H](CO)NCCOc1c(C)cccc1Cl.Cl [Compound 6a, S-( +)-2-((2-(2-chloro-6-methylphenoxy)ethyl)amino)butan-1-ol hydrochloride]",Rotarod: neurotoxic at,mice [1]; 0.5 h,MES: active at 100 Rotarod: neurotoxic at 100 mg/kg
same,Inhibition of pain reaction,"guinea pigs [6]; 0.5%, 30 min",93.75*** %
same,Inhibition of pain reaction,"guinea pigs [6]; 0.5%, 60 min",43.75* %
same,Inhibition of pain reaction,"guinea pigs [6]; 0.5%, 120 min",25%
same,Inhibition of pain reaction,"guinea pigs [6]; […], 5 min",94.44*** %
same,Inhibition of pain reaction,"guinea pigs [6]; […], 60 min",38.89* %
same,Inhibition of pain reaction,guinea pigs [7]; 0.5%,75*** %
same,Inhibition of pain reaction,guinea pigs [7]; […],63.89*** %
same,Prolongation of the time reaction,mice [8]; 0.031%,60.0%
same,Reaction time to painful stimulus,mice [8]; 0.031%,5.6 ± 0.9 s
same,Prolongation of the time reaction,mice [8]; 0.094%,82.9%
same,Reaction time to painful stimulus,mice [8]; 0.094%,6.4 ± 0.8 s
same,Prolongation of the time reaction,mice [8]; 0.125%,348.6%
same,Reaction time to painful stimulus,mice [8]; 0.125%,15.7 ± 1.8 s
same,Prolongation of the time reaction,mice [8]; 0.5%,457.1%
same,Reaction time to painful stimulus,mice [8]; 0.5%,19.5 ± 0.5 s
same,Prolongation of the time reaction,mice [8]; 2.0%,437.1%
same,Reaction time to painful stimulus,mice [8]; 2.0%,18.8 ± 1.9 s
same,Prolongation of the time reaction,mice [8]; […],5.7%
same,Reaction time to painful stimulus,mice [8]; […],3.7 ± 0.6 s
same,% of effect (I phase),mice [9]; 30.0 mg/kg,33.4%
same,% of effect (II phase),mice [9]; 30.0 mg/kg,10.2%
same,Time of licking paw ± SEM (I phase),mice [9]; 30.0 mg/kg,59.7 ± 6.4 s
same,formalin test (I phase): active at,mice [9],30 mg/kg
same,MES: active at,mice [2]; 0.5 h,MES: active at 100 Rotarod: neurotoxic at 100 mg/kg
"Cc1cccc(Cl)c1OCCNC(C)(CO)CO [Compound 7, 2-((2-(2-chloro-6-methylphenoxy)ethyl)amino)-2-methylpropane-1,3-diol]",Rotarod: neurotoxic at,mice [1]; 0.5 h,MES: active at 100 Rotarod: neurotoxic at 100 mg/kg
same,melting point,,83 to 85 °C
same,MES: active at,mice [2]; 0.5 h,MES: active at 100 Rotarod: neurotoxic at 100 mg/kg
"Cc1cccc(Cl)c1OCCNCC(O)c1ccccc1 (centres unmarked) [Compound 9, R,S-2-((2-(2-chloro-6-methylphenoxy)ethyl)amino)-1-phenylethan-1-oll]",Rotarod: neurotoxic at,mice [1]; 0.5 h,100 mg/kg
same,MES: active at,mice [2]; 0.5 h,30 mg/kg
"Cc1cccc(Cl)c1OCC(=O)NCC(C)O (centres unmarked) [Compound 10, R,S-2-(2-chloro-6-methylphenoxy)-N-(2-hydroxypropyl)acetamide]",Rotarod: neurotoxic at,mice [1]; 0.5 h,300 mg/kg
same,ScPTZ: active at,mice [10],300 mg/kg
"Cc1cccc(Cl)c1OCC(=O)NC(C)CO (centres unmarked) [Compound 11, R,S-2-(2-chloro-6-methylphenoxy)-N-(1-hydroxypropan-2-yl)acetamide]",Rotarod: neurotoxic at,mice [1]; 0.5 h,100 mg/kg
same,MES: active at,mice [2]; 0.5 h,300 mg/kg
"CCC(CO)NC(=O)COc1c(C)cccc1Cl (centres unmarked) [Compound 12, R,S-2-(2-chloro-6-methylphenoxy)-N-(1-hydroxybutan-2-yl)acetamide]",Rotarod: neurotoxic at,mice [1]; 0.5 h,300 mg/kg
same,ScPTZ: active at,mice [10],100 mg/kg
same,MES: active at,mice [2]; 0.5 h,300 mg/kg
"Cc1cccc(Cl)c1OCC(=O)NC(C)C(=O)O (stereo not drawn) [Compound 13, R,S-(2-(2-chloro-6-methylphenoxy)acetyl)alanine]",Antiseizure activity and preliminary toxicity screening: result,mice [11],No activity
"Cc1cccc(Cl)c1OCC(=O)N[C@H](C)C(=O)O [Compound 14, R-(+)-(2-(2-chloro-6-methylphenoxy)acetyl)alanine]",Antiseizure activity and preliminary toxicity screening: result,mice [11],No activity
"Cc1cccc(Cl)c1OCC(=O)N[C@@H](C)C(=O)O [Compound 15, S-(-)-(2-(2-chloro-6-methylphenoxy)acetyl)alanine]",Antiseizure activity and preliminary toxicity screening: result,mice [11],No activity
"CCC(NC(=O)COc1c(C)cccc1Cl)C(=O)O (centres unmarked) [Compound 16, R,S-2-(2-(2-chloro-6-methylphenoxy)acetamido)butanoic acid]",Antiseizure activity and preliminary toxicity screening: result,mice [11],No activity
"Cc1cccc(Cl)c1OCC(=O)N[C@H]1CC[C@H](O)CC1 [Compound 18, Trans-2-(2-chloro-6-methylphenoxy)-N-(4-hydroxycyclohexyl)acetamide]",Number of animals active or toxic over the number tested,"mice [1]; 30 mg/kg, 0.5 h",0/8
same,Number of animals active or toxic over the number tested,"mice [1]; 30 mg/kg, 2.0 h",0/8
same,Number of animals active or toxic over the number tested,"mice [1]; 100 mg/kg, 0.5 h",2/8
same,Number of animals active or toxic over the number tested,"mice [1]; 100 mg/kg, 2.0 h",0/8
same,Number of animals active or toxic over the number tested,"mice [1]; 300 mg/kg, 0.5 h",8/8 (sedated)
same,Number of animals active or toxic over the number tested,"mice [1]; 300 mg/kg, 2.0 h",0/8 (unable to grasp rotarod)
same,Rotarod: neurotoxic at,mice [1]; 0.5 h,100 mg/kg
same,Number of animals active or toxic over the number tested,"mice [12]; 30 mg/kg, 0.5 h",0/4
same,Number of animals active or toxic over the number tested,"mice [12]; 30 mg/kg, 2.0 h",0/4
same,Number of animals active or toxic over the number tested,"mice [12]; 100 mg/kg, 0.5 h",4/4
same,Number of animals active or toxic over the number tested,"mice [12]; 100 mg/kg, 2.0 h",0/4
same,Number of animals active or toxic over the number tested,"mice [12]; 300 mg/kg, 0.5 h",4/4
same,Number of animals active or toxic over the number tested,"mice [12]; 300 mg/kg, 2.0 h",4/4
same,8 Hz: active at,"mice [12]; mice, ip, 0.5 h",100 mg/kg
same,Number of animals active or toxic over the number tested,"mice [2]; 30 mg/kg, 0.5 h",3/4
same,Number of animals active or toxic over the number tested,"mice [2]; 30 mg/kg, 2.0 h",0/4
same,Number of animals active or toxic over the number tested,"mice [2]; 100 mg/kg, 0.5 h",4/4
same,Number of animals active or toxic over the number tested,"mice [2]; 100 mg/kg, 2.0 h",0/4
same,Number of animals active or toxic over the number tested,"mice [2]; 300 mg/kg, 0.5 h",4/4
same,Number of animals active or toxic over the number tested,"mice [2]; 300 mg/kg, 2.0 h",4/4
same,MES: active at,mice [2]; 0.5 h,30 mg/kg
NCC1(CC(=O)O)CCCCC1 [Gabapentin],SNL ED50,rats,32 mg/kg
CCN(CC)CC(=O)Nc1c(C)cccc1C [Lidocaine],Inhibition of pain reaction,guinea pigs [13]; 240 min,22.2%
same,Inhibition of pain reaction,guinea pigs [13]; 24 h,0%
Cc1cccc(C)c1NC(=O)C1CCCCN1C (centres unmarked) [Mepivacaine],Prolongation of the time reaction,mice [14]; 1.0%,94.63%
same,Reaction time to painful stimulus,mice [14]; 1.0%,14.13 ± 2.67 s
same,Prolongation of the time reaction,mice [14]; 2.0%,116.67%
same,Reaction time to painful stimulus,mice [14]; 2.0%,15.73 ± 2.09 s
NC(=O)N1c2ccccc2CC(=O)c2ccccc21 [Oxcarbazepine],SNL MED,rats,10 mg/kg
O=C1NC(=O)C(c2ccccc2)(c2ccccc2)N1 [Phenytoin],Prolongation of the time reaction,mice [14]; 1.0%,18%
same,Reaction time to painful stimulus,mice [14]; 1.0%,5.72 ± 0.63 s
same,Prolongation of the time reaction,mice [14]; 2.0%,84%
same,Reaction time to painful stimulus,mice [14]; 2.0%,8.90 ± 0.80 s
"CC(C)NCC(O)COc1cccc2ccccc12 (centres unmarked) [Propranolol, propranolol]",MES ED50,mice [4]; Table 3,MES: ED50 = 15–20 mg/kg
